# Laboratory results taken from article PMC6406907, “A H2AX–CARP-1 Interaction Regulates Apoptosis Signaling Following DNA Damage” (Cancers, 2019).
# No end group written: not given here.
# Experiments:
# [1] = tested on: CARP-1, phospho-JNK1/2, phospho-H2AX; experiment: Western blot of CARP-1, phospho-JNK1/2, γH2AX in HeLa; format: cell-based, human; conditions: 10 μM, WB
# Description: (§1) Logarithmically growing cells were either untreated or treated with different agents for various time periods. The cells were lysed to prepare protein extracts. IP was carried out by incubating approximately 1 mg of the protein lysate with appropriate antibodies. The immunoprecipitates were then analyzed by SDS-PAGE, followed by WB with respective, interacting protein. For Gst-pulldown, Gst-H2AX or various His-TAT-HA-tagged CARP-1 peptides were generated in Escherichia coli (E. coli) BL21 cells essentially as described by us previously. Briefly, the competent E. coli BL-21 (DE3) pLysS cells were transformed separately with various recombinant pGEX-4T-1 or pTAT-HA constructs. The transformed cells were then subjected to selection by combined presence of ampicillin and chloramphenicol; various isolates for each transformation were obtained and bacterial lysates were characterized for expression of fusion peptides. Cells from each isolate were grown in 4 mL of LB medium containing ampicillin only until the optical density (OD)600 reached 0.4–0.8. […]
# Here, we utilized human TNBC MDA-MB-468 and human cervical cancer HeLa cells to conduct an MTT-based dose-response analysis using Adriamycin and CFM compounds. […] The cell lysates from the control, untreated, and treated cells were analyzed by WB for expression of CARP-1, phospho-JNK1/2, phospho-H2AX, and poly ADP ribose polymerase (PARP) proteins. […]
# endogenous CARP-1 = experiment: Anti-EGFP co-immunoprecipitation with endogenous CARP-1; format: cell-based, human; conditions: MDA-MB-468 stable subline, anti-EGFP IP, anti-CARP-1 (α2) WB; Figure 5D
# Description: as §1, with “0.4–0.8. Expression of fusion peptides was induced over 2–4 h incubation periods after Isopropyl β-D-1-thiogalactopyranoside (IPTG) addition.” for “0.4–0.8.”
# Figure 5 Fine Mapping of H2AX/CARP-1 interacting epitopes. […] Following stringent washing, the bound proteins were analyzed with WB using anti-HA (upper) or anti-Gst (middle) antibodies. […]
Compound,"expression of CARP-1, phospho-JNK1/2, phospho-H2AX [1]",in-cell interaction with endogenous CARP-1 (endogenous CARP-1)
"COc1cccc2c1C(=O)c1c(O)c3c(c(O)c1C2=O)C[C@@](O)(C(=O)CO)C[C@@H]3O[C@H]1C[C@H](N)[C@H](O)[C@H](C)O1 [Adriamycin, doxorubicin, reference compound]","stimulated expression of CARP-1, phospho-JNK1/2, and phospho-H2AX in a time-dependent manner",
O=C1N(Cc2ccccc2Cl)c2ccccc2C12NN=C(c1cccc(Cl)c1)S2 (stereo not drawn) [CFM-4.16],"stimulated expression of CARP-1, phospho-JNK1/2, and phospho-H2AX in a time-dependent manner",
"EGFP-H2AX (1–35): EGFP-tagged fusion protein stably expressed in MDA-MB-468 and HeLa sublines (MSGRGKTGGKARAKAKSRSSRAGLQFPVGRVHRLL; also: EGFP fusion, end not given here; UniProt P16104 1-35, looked up, fragment)",,"robust, in vivo interaction"
